Read-outs that look alike come from different tables or passages of the source.
Key:
[1] = chemical stability of active ingredient in liquid formulation after storage at 54° C. for two weeks (HPLC, relative to −10° C. control); format: physicochemical
Procedure: Chemical stability can be determined as a percentage of the sulfonyl urea remaining (e.g. as determined by HPLC) when the liquid composition (e.g. a 50 ml sample of the liquid composition in a 60 ml hermetically sealed Winchester bottle) has been stored at 54° C. for two weeks relative to a corresponding control sample that has been stored at −10° C. for two weeks.
Sulfonylurea was added to a solvent in an amount of 25 wt. %. The mixture was placed in a mill (Eiger Torrance Mini Mill) containing glass beads (1.0-1.25 mm). The suspension was then milled to provide a 25 wt. % sulfonylurea millbase having a particle size (D50) between 2 and 3 μm.
Lithium salt was added to solvent in an amount of 25 wt. % and milled as described above to provide a 25 wt. % lithium salt millbase having a particle size (D50) between 2 and 3 μm.
An appropriate amount of the milled concentrate of sulfonylurea (i) was blended with solvent (optionally containing surfactant) until homogenous, and then further blended with milled concentrate of lithium salt (ii) until homogenous, resulting in the oil dispersions as described in the tables below.
The liquid formulations were stored in tightly closed glass bottles in thermostatically controlled incubators at 54° C. for two weeks with control samples stored at −10° C. After storage, all formulations were analysed for active ingredient content(s) by HPLC. Stability is reported with respect to the amount of active ingredient remaining relative to a corresponding sample stored at −10° C. for two weeks.

[2] = after 5 days, depending on the selected solvent; U.S. Pat. No. 5,731,264; cited from earlier work
[3] = one week of storage at 40° C.; WO 2007/027863 A2; cited from earlier work
[4] = in the presence of lithium acetate

chemical stability in the presence of lithium acetate [1, 4] | SMILES | other results
excellent chemical stability | COC(=O)c1c(Cl)nn(C)c1S(=O)(=O)NC(=O)Nc1nc(OC)cc(OC)n1 [halosulfuron-methyl, methyl 3-chloro-5-[[[[(4,6-dimethoxy-2-pyrimidinyl)amino]carbonyl]amino]sulfonyl]-1-methyl-1H-pyrazole-4-carboxylate] | 
excellent chemical stability | COC(=O)c1ccc(I)cc1S(=O)(=O)NC(=O)Nc1nc(C)nc(OC)n1 [iodosulfuron-methyl, methyl 4-iodo-2-[[[[(4-methoxy-6-methyl-1,3,5-triazin-2-yl)amino]carbonyl]amino]sulfonyl]benzoate] | chemical stability in the presence of lithium salts ([1]; in the presence of lithium acetate, formate, benzoate, octanoate, salicylate, citrate, carbonate, phosphate, chloride and sulphate): excellent chemical stability

Second part, the molecule before the results:

SMILES | chemical stability in the presence of lithium acetate [1, 4] | other results
CCOC(=O)c1cnn(C)c1S(=O)(=O)NC(=O)Nc1nc(OC)cc(OC)n1 [pyrazosulfuron-ethyl, ethyl 5-[[[[(4,6-dimethoxy-2-pyrimidinyl)amino]carbonyl]amino]sulfonyl]-1-methyl-1H-pyrazole-4-carboxylate] | excellent chemical stability | 
COC(=O)c1ccccc1S(=O)(=O)NC(=O)Nc1nc(C)nc(OC)n1 [metsulfuron-methyl, methyl 2-[[[[(4-methoxy-6-methyl-1,3,5-triazin-2-yl)amino]carbonyl]amino]sulfonyl]benzoate] |  | chemical stability in the presence of lithium acetate [1]: excellent chemical stability; metsulfuron methyl lost [2]: 25-30%
COC(=O)c1ccccc1S(=O)(=O)NC(=O)N(C)c1nc(C)nc(OC)n1 [tribenuron-methyl, methyl 2-[[[[N-(4-methoxy-6-methyl-1,3,5-triazin-2-yl)-N-methylamino]carbonyl]amino]-sulfonyl]benzoate] |  | tribenuron-methyl lost [3]: up to 66.5%
COc1cc(OC)nc(NC(=O)NS(=O)(=O)N(C)S(C)(=O)=O)n1 [amidosulfuron, N-[[[[(4,6-dimethoxy-2-pyrimdinyl)amino]carbonyl]amino]sulfonyl]-N-methylmethanesulfonamide] | excellent chemical stability | 
